From patent US20180036289A1 (Gilead Sciences, Inc., priority 2016, published 2018)

Legend:
COLO 205 = assay: Cell proliferation assay (ATPlite), drug with vs without cobicistat; type: cell-based; details: COLO 205 cell line; 120 hours incubation
Protocol: (§1) All cell lines were obtained from the American Type Culture Collection (ATCC) Manassas, Va. (US). Master and working cell banks (MCB and WCB) were prepared by subculturing in ATCC-recommended media and freezing protocols (www.atcc.org). Cell line stocks for the assays were prepared from the WCB. The MCB, WCBs and assay stocks were prepared within respectively 3, 6 and 9 passages of the ATCC vial.
(§2) Solid powders of reference compounds were weighed on a calibrated balance and dissolved in 100% DMSO. DMSO samples were stored at room temperature. At the day of the experiment, the compound stock was diluted in 3.16 fold steps in 100% DMSO to obtain a 9-point dilution series. This was further diluted 31.6 times in 20 mM sterile Hepes buffer pH 7.4. A volume of 5 μl was transferred to the cells to generate a test concentration range from 3.16×10^−5M to 3.16×10^−9 M in duplicate. The final DMSO concentration during incubation was […] in all wells.
(§3) An assay stock was thawed and diluted in its ATCC recommended medium and dispensed in a 384-well plate, depending on the cell line used, at a concentration of 200-3200 cells per well in 45 μl medium. For each used cell line the optimal cell density is used. The margins of the plate were filled with phosphate-buffered saline. Plated cells were incubated in a humidified atmosphere of 5% CO2 at 37° C. After 24 hours, 5 μl of compound dilution was added and plates were further incubated for another 120 hours. After 120 hours, 25 μl of ATPlite 1Step™ (PerkinElmer) solution was added to each well, and subsequently shaken for 2 minutes. After 10 minutes of incubation in the dark, the luminescence was recorded on an Envision multimode reader (PerkinElmer).
(§4) IC50s were calculated by non-linear regression using IDBS XLfit 5. The percentage growth after 120 h (%-growth) was calculated as follows: 100%×(luminescencet=120h/luminescenceuntreated,t=120h). This was fitted to the ^10log compound concentration (conc) by a 4-parameter logistics curve: %−growth=bottom+(top−bottom)/(1+10^(log IC50-conc)*hill)), where hill is the Hill-coefficient, and bottom and top the asymptotic minimum and maximum cell growth that the compound allows in that assay.

DoTc2 4510 = assay: as above; type: cell-based; details: DoTc2 4510 cell line; 120 hours incubation
Protocol: as §1, §2, §3, §4

RPMI-7951 = assay: as above; type: cell-based; details: RPMI-7951 cell line; 120 hours incubation
Protocol: as §1, §2, §3, §4

FaDu = assay: as above; type: cell-based; details: FaDu cell line; 120 hours incubation
Protocol: as §1, §2, §3, §4

SUP-T1 = assay: as above; type: cell-based; details: SUP-T1 cell line; 120 hours incubation
Protocol: as §1, §2, §3, §4

786-O = assay: as above; type: cell-based; details: 786-O cell line; 120 hours incubation
Protocol: as §1, §2, §3, §4

A388 = assay: as above; type: cell-based; details: A388 cell line; 120 hours incubation
Protocol: as §1, §2, §3, §4

MeWo = assay: as above; type: cell-based; details: MeWo cell line; 120 hours incubation
Protocol: as §1, §2, §3, §4

MOLT-4 = assay: as above; type: cell-based; details: MOLT-4 cell line; 120 hours incubation
Protocol: as §1, §2, §3, §4

DLD-1 = assay: as above; type: cell-based; details: DLD-1 cell line; 120 hours incubation
Protocol: as §1, §2, §3, §4

SK-N-AS = assay: as above; type: cell-based; details: SK-N-AS cell line; 120 hours incubation
Protocol: as §1, §2, §3, §4

K-562 = assay: as above; type: cell-based; details: K-562 cell line; 120 hours incubation
Protocol: as §1, §2, §3, §4

A-549 = assay: as above; type: cell-based; details: A-549 cell line; 120 hours incubation
Protocol: as §1, §2, §3, §4

A-498 = assay: as above; type: cell-based; details: A-498 cell line; 120 hours incubation
Protocol: as §1, §2, §3, §4

SW948 = assay: as above; type: cell-based; details: SW948 cell line; 120 hours incubation
Protocol: as §1, §2, §3, §4

A-427 = assay: as above; type: cell-based; details: A-427 cell line; 120 hours incubation
Protocol: as §1, §2, §3, §4

BxPC-3 = assay: as above; type: cell-based; details: BxPC-3 cell line; 120 hours incubation
Protocol: as §1, §2, §3, §4

MIA PaCa-2 = assay: as above; type: cell-based; details: MIA PaCa-2 cell line; 120 hours incubation
Protocol: as §1, §2, §3, §4

A-704 = assay: as above; type: cell-based; details: A-704 cell line; 120 hours incubation
Protocol: as §1, §2, §3, §4

Hs 578T = assay: as above; type: cell-based; details: Hs 578T cell line; 120 hours incubation
Protocol: as §1, §2, §3, §4

PA-1 = assay: as above; type: cell-based; details: PA-1 cell line; 120 hours incubation
Protocol: as §1, §2, §3, §4

SHP-77 = assay: as above; type: cell-based; details: SHP-77 cell line; 120 hours incubation
Protocol: as §1, §2, §3, §4

OVCAR-3 = assay: as above; type: cell-based; details: OVCAR-3 cell line; 120 hours incubation
Protocol: as §1, §2, §3, §4

U-2 OS = assay: as above; type: cell-based; details: U-2 OS cell line; 120 hours incubation
Protocol: as §1, §2, §3, §4

T98G = assay: as above; type: cell-based; details: T98G cell line; 120 hours incubation
Protocol: as §1, §2, §3, §4

SR = assay: as above; type: cell-based; details: SR cell line; 120 hours incubation
Protocol: as §1, §2, §3, §4

Daoy = assay: as above; type: cell-based; details: Daoy cell line; 120 hours incubation
Protocol: as §1, §2, §3, §4

A-204 = assay: as above; type: cell-based; details: A-204 cell line; 120 hours incubation
Protocol: as §1, §2, §3, §4

BT-549 = assay: as above; type: cell-based; details: BT-549 cell line; 120 hours incubation
Protocol: as §1, §2, §3, §4

TT = TT cell line; 120 hours incubation
Protocol: as §1, §2, §3, §4

Structure (SMILES): CC(=O)O[C@@]12CO[C@@H]1C[C@H](O)[C@@]1(C)C(=O)[C@H](O)C3=C(C)[C@@H](OC(=O)[C@H](O)[C@@H](NC(=O)OC(C)(C)C)c4ccccc4)C[C@@](O)([C@@H](OC(=O)c4ccccc4)[C@H]21)C3(C)C [docetaxel]
- Fold change in IC50 (IC50 [Drug + Cobicistat]/IC50 [Drug]) (COLO 205): 3.9 fold
- Fold change in IC50 (IC50 [Drug + Cobicistat]/IC50 [Drug]) (DoTc2 4510): 5.3 fold
- Fold change in IC50 (IC50 [Drug + Cobicistat]/IC50 [Drug]) (RPMI-7951): 3.3 fold
- Fold change in IC50 (IC50 [Drug + Cobicistat]/IC50 [Drug]) (FaDu): 1.7 fold
- Fold change in IC50 (IC50 [Drug + Cobicistat]/IC50 [Drug]) (SUP-T1): 4.5 fold
- Fold change in IC50 (IC50 [Drug + Cobicistat]/IC50 [Drug]) (786-O): 4.2 fold
- Fold change in IC50 (IC50 [Drug + Cobicistat]/IC50 [Drug]) (A388): 6.0 fold
- Fold change in IC50 (IC50 [Drug + Cobicistat]/IC50 [Drug]) (MeWo): 2.3 fold
- Fold change in IC50 (IC50 [Drug + Cobicistat]/IC50 [Drug]) (MOLT-4): 1.7 fold
- Fold change in IC50 (IC50 [Drug + Cobicistat]/IC50 [Drug]) (DLD-1): 2.7 fold
- Fold change in IC50 (IC50 [Drug + Cobicistat]/IC50 [Drug]) (SK-N-AS): 3.3 fold
- Fold change in IC50 (IC50 [Drug + Cobicistat]/IC50 [Drug]) (K-562): 3.2 fold
- Fold change in IC50 (IC50 [Drug + Cobicistat]/IC50 [Drug]) (A-549): 1.1 fold
- Fold change in IC50 (IC50 [Drug + Cobicistat]/IC50 [Drug]) (A-498): 4.2 fold
- Fold change in IC50 (IC50 [Drug + Cobicistat]/IC50 [Drug]) (SW948): 3.5 fold
- Fold change in IC50 (IC50 [Drug + Cobicistat]/IC50 [Drug]) (A-427): 1.3 fold
- Fold change in IC50 (IC50 [Drug + Cobicistat]/IC50 [Drug]) (BxPC-3): 3.0 fold
- Fold change in IC50 (IC50 [Drug + Cobicistat]/IC50 [Drug]) (MIA PaCa-2): 4.2 fold
- Fold change in IC50 (IC50 [Drug + Cobicistat]/IC50 [Drug]) (A-704): 2.3 fold
- Fold change in IC50 (IC50 [Drug + Cobicistat]/IC50 [Drug]) (Hs 578T): 1.9 fold
- Fold change in IC50 (IC50 [Drug + Cobicistat]/IC50 [Drug]) (PA-1): 5.2 fold
- Fold change in IC50 (IC50 [Drug + Cobicistat]/IC50 [Drug]) (SHP-77): 3.5 fold
- Fold change in IC50 (IC50 [Drug + Cobicistat]/IC50 [Drug]) (OVCAR-3): 2.2 fold
- Fold change in IC50 (IC50 [Drug + Cobicistat]/IC50 [Drug]) (U-2 OS): 4.3 fold
- Fold change in IC50 (IC50 [Drug + Cobicistat]/IC50 [Drug]) (T98G): 7.7 fold
- Fold change in IC50 (IC50 [Drug + Cobicistat]/IC50 [Drug]) (SR): 3.6 fold
- Fold change in IC50 (IC50 [Drug + Cobicistat]/IC50 [Drug]) (Daoy): 6.4 fold
- Fold change in IC50 (IC50 [Drug + Cobicistat]/IC50 [Drug]) (A-204): 5.7 fold
- Fold change in IC50 (IC50 [Drug + Cobicistat]/IC50 [Drug]) (BT-549): 1.4 fold
- Fold change in IC50 (IC50 [Drug + Cobicistat]/IC50 [Drug]) (TT): 3.6 fold
